Source: ChEMBL document CHEMBL3988442, “University of Dundee, Small-Polar-MMV Screening Library” (2021)
“And” between values parts separate entries of the source, which are not always exact repeats. Identical values can stand only once.

Assay: In vitro enzyme assay to detect hydrolysis of chlorophenol red-beta-D-[…] directly proportional to the number of Toxoplasma stably expressing beta-galactosidase
Type: functional, organism-based, Toxoplasma gondii
Details: for IC50: Toxoplasma gondii

| Structure (SMILES) | pIC50 | IC50 |
| --- | --- | --- |
| Cc1cccc(NC(=O)C2CC(=O)n3cnnc3S2)c1 (stereo unspecified) | 4.363 | > 50.1 µM |
| COc1ccc(C2=NOC(C(=O)N3CCCc4ccccc43)C2)cc1 (stereo unspecified) |  | 27.9 µM |
| COC(=O)c1cnc2c(c(C)nn2C)c1OC |  | > 50.1 µM |
| NC(=O)C(Cc1ccccc1)NS(=O)(=O)Cc1ccccc1Cl (stereo unspecified) |  | > 50.1 µM |
| O=C(NCCC1=CCCCC1)c1n[nH]c2c1CCCC2 | 5.49 | 1.7 µM |
| COc1ccc(C(=O)N(CCO)Cc2ccccc2)c(OC)n1 | < 4.3 | 29.2 µM |
| CCOCCNC(=O)c1cccnc1Sc1cc(OC)ccc1OC |  | > 50.1 µM |
| COC(=O)CC(C1=Cc2ccccc2OC1)c1oc(C)cc(=O)c1O (stereo unspecified) | 4.537 | > 50.1 µM |
| Cc1c(-c2ccccc2)nc2c(c(C)c(C)n2CCN(C)C)c1N |  | 15.6 µM |
| CCCc1nc2c(c(C)c(C)n2Cc2ccccn2)c(N)c1CC | 4.935 | 10.4 µM |
| COCC(=O)NCc1nn(CCN2CCCC2)c(=O)c2ccccc12 |  | 26.7 µM |
| O=C(NCCn1cnc(C2CCCC2)cc1=O)NCc1cccs1 |  | 7.44 µM |
| CCN1CC2(CC1=O)CN(Cc1ccoc1)CCN(C(=O)C(C)C)C2 (stereo unspecified) |  | > 50.1 µM |
| CC(=O)N1CC[C@@]2(C(=O)Nc3ccccc3)CCN(S(C)(=O)=O)CC[C@@H]12 |  | > 50.1 µM |
| O=C(C[C@@H]1COC[C@H]2CN(Cc3ccncc3)C[C@@H]12)N1CCCC1 |  | > 50.1 µM |
| CC(C)NC(=O)C1CN(C(=O)CCc2ccccc2)CC12CCOCC2 (stereo unspecified) |  | > 50.1 µM |
| Cc1cc(CN2CCC3(CC2)COC(COc2ccccn2)C3)no1 (stereo unspecified) |  | > 50.1 µM |
| Cc1ccc(CN2CCCn3c(nc(Cn4ccnc4)cc3=O)C2)o1 |  | > 50.1 µM |
| O=C([C@@H]1CCO[C@@H]2CCN(CC3CC3)C[C@H]21)N1CCCCO1 |  | > 50.1 µM |
| COc1ccc(-n2nnc(C(=O)O)c2-c2ccccn2)cc1 |  | 24.8 µM |
| Cc1c(C)n(Cc2ccccn2)c2nc3c(c(N)c12)CCCCCC3 |  | 6.75 µM |
| CS(=O)(=O)Nc1nn(Cc2ccc(F)cc2)cc1Br |  | > 50.1 µM |
| Cc1cccc(Cn2cc(Br)c(NS(C)(=O)=O)n2)c1 |  | > 50.1 µM |

| Structure (SMILES) | pIC50 | IC50 |
| --- | --- | --- |
| O=C(COc1ccc2c(c1)CCC2)NCc1ccco1 |  | 35.5 µM |
| CCN(Cc1nonc1C)C(=O)Cn1nc(C(F)(F)F)cc1C1CC1 |  | > 50.1 µM |
| Cc1cc(=O)n2c3c(cc(S(=O)(=O)NC4CC4)cc13)CCC2 |  | > 50.1 µM |
| Cc1nc(N2CCN(C(=O)c3ccco3)CC2)c2c(n1)c(C)nn2C | 4.358 | > 50.1 µM |
| Cc1c(-c2cc(C(F)(F)F)nc(N3CCC(N)CC3)n2)cnn1C | 5.176 | 4.18 µM |
| CCn1c(NCc2ccccc2)nc2c(C)nn(C)c2c1=O | 4.457 | 22.7 µM |
| COc1cc2cc(C(=O)NCC(=O)O)n(C)c2c(OC)c1OC |  | > 50.1 µM |
| CCC1=NC(SCC(=O)c2ccccc2)c2cc(CC)sc2N1 (stereo unspecified) |  | 14.9 µM |
| CCC1=NC(SCC(=O)c2ccc(C)cc2)c2cc(CC)sc2N1 (stereo unspecified) |  | > 50.1 µM |
| CCC1=NC(SCC(=O)c2ccc(OC)cc2)c2cc(CC)sc2N1 (stereo unspecified) |  | 37.7 µM |
| Cc1c(S(=O)(=O)NC2CC2)cc2c(C)cc(=O)n3c2c1CCC3 |  | 48.5 µM |
| Cc1c(S(=O)(=O)N2CCOCC2)cc2c(C)cc(=O)n3c2c1CCC3 |  | > 50.1 µM |
| CN(C)c1ncc2c(n1)CN(C1CCSCC1)C2=O |  | > 50.1 µM |
| Cc1nn(C)c(C)c1CNC(=O)c1cc(NC(=O)C2CC2)n(C)n1 |  | > 50.1 µM |
| CNc1ncc2c(n1)CN(c1cccc(OC)c1)C2=O |  | > 50.1 µM |
| CCNc1ncc2c(n1)CN(c1cccc(OC)c1)C2=O |  | > 50.1 µM |
| CCNc1ncc2c(n1)CN(c1ccc(C)c(C)c1)C2=O |  | > 50.1 µM |
| CCNc1ncc2c(n1)CN(c1ccc(OC(F)(F)F)cc1)C2=O |  | > 50.1 µM |
| CCNc1ncc2c(n1)CN(c1ccc(Cl)cc1)C2=O |  | > 50.1 µM |
| CCc1nc(Nc2cccc(C(=O)NC)c2)c2c(n1)c(C)nn2CC |  | > 50.1 µM |
| CCc1nc(Nc2ccc(C(=O)NC)cc2)c2c(n1)c(C)nn2CC | < 4.3 | 37.2 µM |
| CCCc1nc(NCCOC)c2c(n1)c(C)nn2CC |  | > 50.1 µM |
| CCCc1nc(NCCCOC)c2c(n1)c(C)nn2CC |  | 34 µM |

| Structure (SMILES) | pIC50 | IC50 |
| --- | --- | --- |
| CCn1nc(C)c2nc(C(C)C)nc(NCC(C)O)c21 (stereo unspecified) |  | > 50.1 µM |
| CCCc1nc(NCCCOCC)c2c(n1)c(C)nn2CC |  | > 50.1 µM |
| CCCc1nc(NCCCn2ccnc2)c2c(n1)c(C)nn2CC |  | > 50.1 µM |
| Cc1nn(C)c2c(N(C)Cc3ccco3)nc(C3CC3)nc12 |  | 11.8 µM |
| CCn1nc(C)c2nc(C(C)C)nc(NCCCn3cccn3)c21 |  | 35.2 µM |
| CCn1nc(C)c2nc(C(C)C)nc(NCCc3ccc(O)cc3)c21 | 4.521 | 22.2 µM |
| CCn1nc(C)c2nc(C(C)C)nc(NCCCn3ccnc3)c21 |  | > 50.1 µM |
| CCN(CC)CCNc1nc(C(C)C)nc2c(C)nn(CC)c12 |  | > 50.1 µM |
| CCn1nc(C)c2nc(C(C)C)nc(NC)c21 |  | > 50.1 µM |
| CC(C)n1cc(S(=O)(=O)N2CCCCCC2)cn1 |  | > 50.1 µM |
| Cc1cc(C(=O)N(C)Cc2cccs2)nc(N2CCCCC2)n1 |  | > 50.1 µM |
| c1cnc(-c2nn3c(CN4CCCCC4)nnc3s2)cn1 |  | > 50.1 µM |
| CCn1cc(NC(=O)c2cc(C)nc(N3CCOCC3)n2)cn1 |  | > 25.1 µM |
| c1ccc(-c2nn3c(CN4CCOCC4)nnc3s2)nc1 |  | > 50.1 µM |
| c1cc(-c2nn3c(CN4CCOCC4)nnc3s2)ccn1 | < 4.3 | 44.7 µM |
| c1cnc(-c2nn3c(CN4CCOCC4)nnc3s2)cn1 |  | > 50.1 µM |
| O=C(c1ccc(COc2ccccc2Cl)o1)N1N=CCC1(O)C(F)(F)F (stereo unspecified) | 5.104 | 6.07 µM |
| Cc1cccc(OCc2ccc(C(=O)N3N=CCC3(O)C(F)(F)F)o2)c1 (stereo unspecified) | 5.353 | 3.87 µM |
| O=C(c1ccc(-c2ccc(O)nc2)s1)N1CCSCC1 | 4.349 | 36.8 µM |
| CC(=O)N1CC2(CCCN(Cc3ccc(Cl)cc3)C2)Cc2ccccc21 (stereo unspecified) | 4.953 | 10.4 µM |
| CCN(CCO)Cc1ccc(Br)c2cccnc12 | 5.613 | 2.26 µM |
| CC(C)(C)c1cn2c(n1)C(CNCc1cnn3ccccc13)CCC2 (stereo unspecified) |  | 2.52 µM |
| CCN(CCNS(=O)(=O)N1CCOCC1)C(=O)OC(C)(C)C |  | > 50.1 µM |

| Structure (SMILES) | pIC50 | IC50 |
| --- | --- | --- |
| CNc1ncc(C(=O)N2CCCC(Cc3ccccc3OC)C2)s1 (stereo unspecified) |  | 45.9 µM |
| COc1ccc(C2CCCN2c2ccnc(C)c2Cl)c(OC)c1 (stereo unspecified) |  | 14 µM |
| COC(=O)c1ccc2c(c1)CCCN2S(=O)(=O)c1cn(C)c(C)n1 |  | 7.21 µM |
| CC(C)c1ocnc1C(=O)Nc1cccc(Cn2ccccc2=O)c1 |  | > 50.1 µM |
| CCC(C)(CC(=O)OC)NCc1cc(C)on1 (stereo unspecified) |  | > 50.1 µM |
| COCc1nnc(-c2cccc(C(=O)N(C)CC(C)(C)C)c2)o1 |  | > 50.1 µM |
| O=C(CN1CCCc2cc(F)cc(F)c21)Nc1ccc(Br)cn1 |  | 30.4 µM |
| O=C(Nc1ccncc1)NC1CCN(c2ccccc2OC(F)F)C1 (stereo unspecified) |  | 1.87 µM |
| N#Cc1c(Cl)nsc1NCc1cccnc1OC1CCCC1 | 5.095 | 6.71 µM |
| O=C(NCCN1CCOCC1)c1cc(-c2ccc(Cl)s2)[nH]n1 |  | 5.29 µM |
| CCc1cc(=O)[nH]c(-c2ccc(NCCc3ccc(O)cc3)nc2)n1 |  | 1.18 µM |
| CCc1ccc(NC(=O)C(C)Nc2cccc3c2OCCO3)cc1 (stereo unspecified) | 5.373 and 4.972 |  |
| COc1cc2nc(NCc3scnc3C)nc(N)c2cc1OC |  | 15.6 µM |
| CC(C(=O)Nc1sccc1C(N)=O)N(C)CCOc1ccccc1 (stereo unspecified) | 5.826 | 2.24 µM |
| Cc1c(CC(=O)N2CCN(C(C)C)CC2)nnn1-c1ccccc1 |  | > 50.1 µM |
| COc1ccc(-c2nnc(SC(C)C(=O)NC3CCCC3)[nH]2)c(OC)c1 (stereo unspecified) |  | > 50.1 µM |
| O=C(CN1CCc2sccc2C1)Nc1ccnc2ccnn12 | 5.251 | 2.81 µM |
| CCCNC(=O)c1cc(-c2cnc(N3CCCC3)nc2)cn1C | 4.78 and 4.438 |  |
| OC1CCN(c2ccnc(NCCc3ccccc3Cl)n2)C1 (stereo unspecified) | 5.797 | 2.35 µM |
| CCc1cc(N2CCC(NCCc3ccccc3F)CC2)nc(C)n1 | 4.968 | 8.65 µM |
| c1csc(-c2noc(C3CNC3)n2)c1 |  | 2.96 µM |
| CN(C)CCCNCCC(Cc1ccccc1)C1CCOC(C)(C)C1.O=C(O)C(=O)O (stereo unspecified) | 5.163 | 4.6 µM |
| Cc1cc(NCCO)nc(N2CCC(Cc3ccccc3)CC2)c1C#N |  | 10.7 µM |

| Structure (SMILES) | pIC50 | IC50 |
| --- | --- | --- |
| Cc1ccc(CN2Cc3nnn(C)c3C(COCc3ccccc3)C2)s1.O=C(O)C(F)(F)F (stereo unspecified) | 4.987 | 7.69 µM |
| CO[C@H]1CC[C@H]2[C@H]1OCCN2Cc1ccc(F)c(F)c1 |  | > 50.1 µM |
| Fc1cnc(N2CCO[C@H]3CN(CC4CCCCC4)C[C@H]32)nc1 |  | > 50.1 µM |
| COCC(=O)N1C[C@@H](OCc2ccncc2)[C@@H]2OCCC[C@@H]21 |  | > 50.1 µM |
| O=C1COC2(CCN(S(=O)(=O)C3CC3)CC2)CN1c1cccnc1 |  | > 50.1 µM |
| CC(C)CC(=O)N1CC[C@H]2N(C)CC[C@@]2(C(=O)Nc2ccccc2)CC1 |  | > 50.1 µM |
| Cn1cccc1C(=O)N1C[C@@H](OCc2ccncc2)[C@@H]2OCCC[C@@H]21 |  | > 50.1 µM |
| COCC(=O)N1CCn2c(COc3cccnc3)cnc2C1C (stereo unspecified) |  | > 50.1 µM |
| Cn1cc(N2CC3(CCN(Cc4nccs4)CC3)OCC2=O)cn1 |  | > 50.1 µM |
| CS(=O)(=O)N1CCOCC2(CCN(c3ccccn3)C2)C1 (stereo unspecified) |  | > 50.1 µM |
| COC[C@@H]1CCC[C@@]12CN(Cc1ccc(C)s1)CCO2 |  | > 50.1 µM |
| O=C([C@@H]1CCO[C@@H]2CCN(Cc3ccc(F)cc3)C[C@H]21)N1CCCCO1 |  | > 50.1 µM |
| Cn1cc(CN2CCn3cc(Cn4cccn4)nc3C2)cn1 |  | > 50.1 µM |
| O=C(N1CCOCC1)[C@@]12CCO[C@@H]1CCN(C1CCOCC1)C2 |  | > 50.1 µM |
| O=C(N1CCOCC1)[C@@]12CCO[C@@H]1CCN(C1CCC1)C2 |  | > 50.1 µM |
| Cc1cnc(N2CC[C@H]3[C@@H]2CCC(=O)N3c2ccccc2)nc1.O=C(O)C(F)(F)F | 4.34 | > 50.1 µM |
| O=C(N1CCCC1)N1C[C@H]2CCC[C@@]2(COCc2ccccn2)C1 |  | > 50.1 µM |
| Cc1cccc(CN2CCc3nnc(CN4CCCCC4)n3CC2)n1 |  | > 50.1 µM |
| CCN1CC2(CC1=O)CN(Cc1ccncc1)CCN(C(=O)C(C)C)C2 (stereo unspecified) |  | > 50.1 µM |
| Cn1cc(CN2C[C@@H]3COC[C@H](C(=O)Nc4cccnc4)[C@@H]3C2)cn1 |  | > 50.1 µM |
